Patent publication US20050272770A1, “Compositions and treatments for inhibiting kinase and/or HMG-CoA reductase” (priority 2004, published 2005)
pIC50: −log10 of the molar value. “And” between values parts separate entries of the source, which are not always exact repeats. Equal values may be shown once. Where a name gives a salt, the structure may show the parent alone. Read-outs that look alike come from different tables or passages of the source.

Tests used:
[1] = target: T1, human recombinant p38α protein kinase (Homo sapiens, UniProt Q16539); test: Human p38α MAP kinase inhibition assay (cell-free, phosphorylation of myelin basic protein); format: biochemical
T1 construct: purchased UBI 14-251; host or cells: E. coli
Procedure: In vitro cell-free p38α MAP kinase inhibition assays were conducted by the method as described in Clerk et al., FEBS Lett., 426:93-96 (1998) for a number of lactones in formulas I/IIa/IIb. Briefly, human recombinant p38α protein kinase expressed in E. coli (UBI #14-251) was used. Myelin basic protein (MBP, UBI #13-110) was employed as substrate, and microtiter plate wells were coated with MBP (0.01 mg/ml) overnight at 4° C. Candidate compound and/or vehicle was preincubated with 0.075 μg/mL enzyme in modified HEPES buffer pH 7.4 at 25° C. for 15 minutes. The reaction was initiated by addition of 100 μM ATP and allowed to proceed for another 60 minutes. The reaction was terminated by aspirating the solution. Phosphorylated MBP was detected by incubation with a mouse monoclonal IgG2a anti-phosphoMBP antibody. Bound anti-phosphoMBP antibody was quantitated by incubation with a HRP conjugated goat anti-mouse IgG.

[2] = test system: oxazolone-induced mouse ear swelling; test: Model for inhibition of topical inflammation (oxazolone-induced mouse ear swelling); format: in vivo, BALB/c male mice; settings: for % Inh. of oxazolone-induced mouse ear swelling: topical, ear thickness 24 hours after challenge
Procedure: Left ears were untreated. The thickness of both ears of each animal was measured with a Dyer model micrometer gauge 24 hours after oxazolone challenge, and the net increase in thickness of right ears versus left ears was calculated for each animal. Percent inhibition was calculated according to the formula: [(Iv−It)/Iv]×100, where Iv and It respectively refer to the average net increase in right ear thickness (mm) for vehicle and candidate compound treated mice.

[3] = test system: LPS-induced TNF-α release from human peripheral blood mononuclear cells; test: Whole cell LPS-stimulated TNF-α release assay; format: cell-based
Procedure: The procedure as described in Welker et al., Int. Arch. Allergy and Immunol. 109:110-115 (1996) can be followed. Briefly, a candidate compound and/or vehicle can be preincubated with human peripheral blood mononuclear leukocytes (PBML, 5×10^5/ml) cells in AIM-V medium pH 7.4 for 2 hours. Lipopolysaccharide (LPS, 25 ng/ml) can be added to stimulate the cells, which can be incubated overnight at 37° C. TNF-α cytokine levels in the conditioned medium can then be quantitated using a sandwich ELISA kit.
(§1) Table III below summarizes the results of in vitro assays described above for HMG-CoA and/or MAP kinase inhibitory activity of specific pyrazole compounds.

[4] = target: T2, rat liver HMG-CoA reductase (Rattus norvegicus, UniProt P51639); test: Cell-free HMG-CoA reductase assay; format: biochemical; settings: concentration required to inhibit rat liver HMG-CoA reductase by 50%; read-out: IC50 HMG-CoA R
T2 construct: from tissue; host or cells: rat liver (per the results' head)
T2 sequence (P51639 1-887): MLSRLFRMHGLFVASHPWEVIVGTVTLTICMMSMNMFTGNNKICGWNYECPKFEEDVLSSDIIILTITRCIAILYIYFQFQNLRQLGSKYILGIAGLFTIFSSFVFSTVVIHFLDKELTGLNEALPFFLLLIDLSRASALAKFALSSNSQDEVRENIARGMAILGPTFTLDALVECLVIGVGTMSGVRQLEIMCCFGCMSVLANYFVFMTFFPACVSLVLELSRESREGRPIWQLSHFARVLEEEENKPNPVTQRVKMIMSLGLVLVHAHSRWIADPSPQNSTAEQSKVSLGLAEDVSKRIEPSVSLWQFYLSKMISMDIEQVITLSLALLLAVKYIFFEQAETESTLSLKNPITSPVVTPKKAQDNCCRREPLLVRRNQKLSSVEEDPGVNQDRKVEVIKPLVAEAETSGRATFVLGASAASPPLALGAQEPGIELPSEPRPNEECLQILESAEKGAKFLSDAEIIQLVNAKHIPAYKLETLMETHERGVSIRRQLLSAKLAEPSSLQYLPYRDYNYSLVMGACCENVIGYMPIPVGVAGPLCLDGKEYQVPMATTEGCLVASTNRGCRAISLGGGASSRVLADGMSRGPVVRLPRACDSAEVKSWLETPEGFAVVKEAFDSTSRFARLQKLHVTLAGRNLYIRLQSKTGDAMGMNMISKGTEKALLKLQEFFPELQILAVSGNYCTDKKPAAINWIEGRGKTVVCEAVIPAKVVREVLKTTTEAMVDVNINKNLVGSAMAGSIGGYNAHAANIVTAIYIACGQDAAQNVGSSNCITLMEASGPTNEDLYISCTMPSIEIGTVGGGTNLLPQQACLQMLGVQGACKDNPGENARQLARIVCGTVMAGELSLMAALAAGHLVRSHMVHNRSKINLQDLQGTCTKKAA
Procedure: An example of a cell-free HMG-CoA reductase assay involves radiometric procedures described in Shum et al., Ther. Drug Monit. 20:41-49 (1998), incorporated herein by reference. Briefly, about 150 μg/mL of HMG-CoA reductase can be incubated with a candidate compound, together with about 12 μM [^14C]HMG-CoA and about 200 μM NADPH in about 200 μL 0.2M phosphate buffer (pH about 7.2) for about 0.5 h at about 37° C. The [^14C]mevalonate that forms can be converted under acidic conditions to [^14C]mevalonolactone and separated from un-reacted substrate, for example, by ion-exchange chromatography, and then quantified, for example, by liquid scintillation counting.
as §1

[5] = in vitro, human p38α MAP kinase, Table I, read-out: IC50 p38α
[6] = Homo sapiens, PBMC; read-out: IC50 Whole cell
[7] = inhibition of phosphorylation of myelin basic protein by recombinant human p38α MAP kinase by 50%, Table III, read-out: IC50 p38α MAPK
[8] = Homo sapiens, PBMC, read-out: IC50 Whole cell

T1 sequence (Q16539 whole entry): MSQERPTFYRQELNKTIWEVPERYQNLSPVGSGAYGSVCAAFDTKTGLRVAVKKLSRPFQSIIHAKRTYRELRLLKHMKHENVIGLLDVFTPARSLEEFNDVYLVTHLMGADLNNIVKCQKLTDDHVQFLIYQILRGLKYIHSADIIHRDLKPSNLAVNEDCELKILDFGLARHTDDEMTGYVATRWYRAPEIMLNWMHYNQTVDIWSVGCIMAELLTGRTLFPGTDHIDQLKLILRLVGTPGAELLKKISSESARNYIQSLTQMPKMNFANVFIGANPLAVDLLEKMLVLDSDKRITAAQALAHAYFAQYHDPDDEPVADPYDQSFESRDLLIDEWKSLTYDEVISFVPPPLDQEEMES

With `CC(C)c1c(C(=O)Nc2ccccc2)c(-c2ccccc2)c(-c2ccc(F)cc2)n1CC[C@@H](O)C[C@@H](O)CC(=O)O` [Atorvastatin calcium] as the compound, how does the pIC50 [1, 5] read?
The pIC50 was < 4.00.

Which results are given for `CC(C)c1c(C(=O)Nc2ccccc2)c(-c2ccccc2)c(-c2ccc(F)cc2)n1CC[C@@H]1C[C@@H](O)CC(=O)O1` [Atorvastatin lactone]?
anti-inflammatory activity in ear swelling model, comparison in words ([2]; observations on Table II): most potent anti-inflammatory activity in this assay; % Inh. of oxazolone-induced mouse ear swelling ([2]; dose 2 × 0.3 mg): 40%; % Inh. of oxazolone-induced mouse ear swelling ([2]; dose 2 × 0.3 mg, listed as atorvastatin lactone): 50% and 58% and 40%; % Inh. of oxazolone-induced mouse ear swelling ([2]; dose 2 × 1 mg): 58%; % Inh. of oxazolone-induced mouse ear swelling ([2]; dose 2 × 2 mg): 50%; pIC50 [1, 5]: ~4.70 and 4.70

What does the source list for `CC(C)c1c(C(=O)Nc2ccccc2)c(-c2ccccc2)c(-c2ccc(F)cc2)n1CC[C@@H](O)C[C@@H](O)CC(=O)O` [Atorvastatin sodium]?
% Inh. of oxazolone-induced mouse ear swelling ([2]; dose 2 × 0.3 mg): 9%; % Inh. of oxazolone-induced mouse ear swelling ([2]; dose 2 × 1 mg): 31%; % Inh. of oxazolone-induced mouse ear swelling ([2]; dose 2 × 2 mg): 63%

How did the pIC50 [3, 6] turn out when `CCC(C)c1nn(-c2ccnc(Nc3ccccc3)c2)c(-c2ccc(F)cc2)c1/C=C/[C@@H]1C[C@@H](O)CC(=O)O1` (some centres unmarked) [Example 10b] was run?
The pIC50 was 4.85.

And the pIC50 [1, 7]?
Its pIC50 is 5.22.

What does the source list for `O=C(O)C[C@H](O)C[C@H](O)/C=C/c1c(-c2ccccc2)nn(-c2ccnc(Nc3ccccc3)n2)c1-c1ccccc1` [Example 11a, (3R,5S,E)-7-(3,5-diphenyl-1-(2-(phenylamino)pyrimidin-4-yl)-1H-pyrazol-4-yl)-3,5-dihydroxyhept-6-enoic acid calcium salt]?
pIC50 [3, 8]: 4.51; pIC50 [4]: 7.48; pIC50 [1, 7]: 4.96

What does the source list for `O=C1C[C@H](O)C[C@@H](/C=C/c2c(-c3ccccc3)nn(-c3ccnc(Nc4ccccc4)n3)c2-c2ccccc2)O1` [Example 11b, (4R,6S,E)-6-(2-(3,5-diphenyl-1-(2-(phenylamino)pyrimidin-4-yl)-1H-pyrazol-4-yl)vinyl)-4-hydroxy-tetrahydropyran-2-one]?
pIC50 [3, 6]: 4.68; pIC50 [1, 7]: 5.22

Which results are given for `O=C(O)C[C@H](O)C[C@H](O)CCc1c(-c2ccccc2)nn(-c2ccnc(Nc3ccccc3)n2)c1-c1ccccc1` [Example 11c, (3R,5R)-7-(3,5-diphenyl-1-(2-(phenylamino)pyrimidin-4-yl)-1H-pyrazol-4-yl)-3,5-dihydroxyheptanoic acid]?
pIC50 [3, 6]: 4.74; pIC50 [4]: < 7.00

With `O=C1C[C@H](O)C[C@@H](CCc2c(-c3ccccc3)nn(-c3ccnc(Nc4ccccc4)n3)c2-c2ccccc2)O1` [Example 11d, (4R,6R)-6-(2-(3,5-diphenyl-1-(2-(phenylamino)pyrimidin-4-yl)-1H-pyrazol-4-yl)ethyl)-4-hydroxy-tetrahydropyran-2-one] as the compound, how does the pIC50 [3, 6] read?
The pIC50 was 4.96.

What about the pIC50 [1, 7] of the same compound?
The pIC50 was 5.10.

How did the pIC50 ([3]; inhibition of LPS-induced TNF-α release from human peripheral blood mononuclear cells by 50%; read-out: IC50 Whole cell) turn out when `COc1nccc(-n2nc(C(C)C)c(/C=C/[C@@H](O)C[C@@H](O)CC(=O)O)c2-c2cccc(C(F)(F)F)c2)n1` [Example 11e, (3R,5S,E)-3,5-dihydroxy-7-(3-isopropyl-1-(2-methoxypyrimidin-4-yl)-5-(3-(trifluoromethyl)phenyl)-1H-pyrazol-4-yl)hept-6-enoic acid calcium salt] was run?
Its pIC50 is 4.52.

What about the pIC50 [4] of the same compound?
Its pIC50 is 8.70.

What about the pIC50 [1, 7] of the same compound?
Its pIC50 is 4.44.

What does the source list for `COc1nccc(-n2nc(C(C)C)c(/C=C/[C@@H]3C[C@@H](O)CC(=O)O3)c2-c2cccc(C(F)(F)F)c2)n1` [Example 11f, (4R,6S,E)-4-hydroxy-6-(2-(3-isopropyl-1-(2-methoxypyrimidin-4-yl)-5-(3-(trifluoromethyl)phenyl)-1H-pyrazol-4-yl)vinyl)-tetrahydropyran-2-one]?
pIC50 [3, 6]: 4.80; pIC50 [1, 7]: < 4.00

What does the source list for `O=C(O)C[C@H](O)C[C@H](O)/C=C/c1cnn(-c2ccnc(Nc3ccccc3)n2)c1-c1cccc(C(F)(F)F)c1` [Example 11g, (3R,5S,E)-3,5-dihydroxy-7-(1-(2-(phenylamino)pyrimidin-4-yl)-5-(3-(trifluoromethyl)phenyl)-1H-pyrazol-4-yl)hept-6-enoic acid calcium salt]?
pIC50 [3, 8]: 4.28; pIC50 [4]: < 7.00; pIC50 [1, 7]: 4.85

`CC(C)n1c(/C=C/C(O)CC(O)CC(=O)O)c(-c2ccc(F)cc2)c2ccccc21` (centres unmarked) [Fluvastatin sodium] was tested. Which “% Inh. of oxazolone-induced mouse ear swelling” value ([2]; dose 2 × 0.3 mg) did it give?
Its value is 28%.

And the pIC50 [1, 5]?
Its pIC50 is ~4.47 and 4.47.

`COc1ccc2c(c1)c(CC(=O)O)c(C)n2C(=O)c1ccc(Cl)cc1` [Indomethacin] was tested. Which “% Inh. of oxazolone-induced mouse ear swelling” value ([2]; dose 2 × 0.3 mg) did it give?
Its value is 44%.

Which “% Inh. of oxazolone-induced mouse ear swelling” value ([2]; dose 2 × 0.3 mg) does the source give for `O=C([O-])C[C@H](O)C[C@H](O)/C=C/c1c(C2CC2)nc2ccccc2c1-c1ccc(F)cc1.O=C([O-])C[C@H](O)C[C@H](O)/C=C/c1c(C2CC2)nc2ccccc2c1-c1ccc(F)cc1.[Ca+2]` [Pitavastatin calcium] here?
Its value is 9%.

What about the “% Inh. of oxazolone-induced mouse ear swelling” value ([2]; dose 2 × 2 mg) of the same compound?
Its value is 60%.

How did the “% Inh. of oxazolone-induced mouse ear swelling” value ([2]; dose 2 × 0.3 mg) turn out when `CC[C@H](C)C(=O)O[C@H]1C[C@H](O)C=C2C=C[C@H](C)[C@H](CC[C@@H](O)C[C@@H](O)CC(=O)O)[C@H]21` [Pravastatin sodium] was run?
The value was 24%.

`CC(C)c1nc(N(C)S(C)(=O)=O)nc(-c2ccc(F)cc2)c1/C=C/[C@@H](O)C[C@@H](O)CC(=O)O` [Rosuvastatin calcium] was tested. Which pIC50 [1, 5] did it give?
Its pIC50 is 4.04.

How did the “% Inh. of oxazolone-induced mouse ear swelling” value ([2]; dose 2 × 0.3 mg) turn out when `CC(C)c1nc(N(C)S(C)(=O)=O)nc(-c2ccc(F)cc2)c1/C=C/[C@@H](O)C[C@@H](O)CC(=O)O` [Rosuvastatin sodium] was run?
Its value is 20%.

Simvastatin sodium was tested. Which pIC50 [1, 5] did it give?
The pIC50 was < 4.00.
